Assays:
[1] = target: T1, lysyl oxidase (Bos taurus, UniProt P33072); assay: Test for lysyl oxidase-inhibitory effect (homovanillic acid/horseradish peroxidase fluorescence); format: biochemical; conditions: enzyme from bovine aortas, 15 minutes preincubation, pH 8.2; read-out: IC50 (inhibition of lysyl oxidase)
T1 construct: The enzyme was isolated from bovine aortas; from tissue; host or cells: bovine aorta
T1 sequence (P33072 170-418): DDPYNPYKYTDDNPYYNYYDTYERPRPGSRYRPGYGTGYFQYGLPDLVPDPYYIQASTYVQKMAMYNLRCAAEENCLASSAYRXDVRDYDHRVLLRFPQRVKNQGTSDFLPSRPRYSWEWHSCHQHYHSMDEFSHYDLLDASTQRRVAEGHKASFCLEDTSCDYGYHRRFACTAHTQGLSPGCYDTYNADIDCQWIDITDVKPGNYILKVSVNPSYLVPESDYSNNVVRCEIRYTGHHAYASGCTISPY
Protocol: 1. Test for Lysyl Oxidase-inhibitory Effect:
The enzyme was isolated from bovine aortas in a modification of a method of Kagan et al. [Biochem. J. 177, 203-214 (1979)] by extraction with phosphate buffer containing urea, followed by precipitation and chromatography on DEAE-Sephadex.
The test solution (total volume 200 μl) is composed of 1.5 mM homovanillinic acid, 5 mM 1,5-diaminopentane, 1 unit of horseradish peroxidase and 1.5 M urea in 50 mM sodium borate buffer of pH 8.2. The enzyme was preincubated with the compound to be tested for 15 minutes; the reaction was started by adding diaminopentane and homovanillin/horseradish peroxidase. The fluorescence of the homovanillin dimer which formed was measured with excitation at 315 nm and emission at 425 nm. This test arrangement is a modification of the method of Trackman et al. [Anal. Biochem. 113, 336-341 (1981)].
The IC50 as a measure of the inhibition of lysyl oxidase is found by testing various concentrations of substance and using the concentration-effect plots.

[2] = tested on: serum-induced hepatic fibrosis in rats; assay: Model of serum-induced hepatic fibrosis, liver collagen content (4-hydroxyproline); format: in vivo, rat; conditions: serum-treated female Sprague-Dawley rats, 3 mg/kg p.o. o.d.; vehicle 2.070, intact 0.577; P <0.01
Protocol: c) Model of Serum-induced Hepatic Fibrosis: A septal fibrosis can be induced in rats also by repeated injection of heterologous serum. For this purpose, 0.5 ml of sterile-filtered porcine serum is administered i.p. to each animal twice a week [Bhunchet and Wake, Hepatology 16, 1452-73 (1992)]. The experiments were carried out with female Sprague-Dawley rats (200-220 g). After 6-8 weeks, the septal fibrosis is histologically manifest and can also be detected through an increase in the liver hydroxyproline content. b) Collagen Content: The total collagen content was estimated by means of the tissue 4-hydroxyproline concentration. The method of Prockop and Udenfried [D. J. Prockop and S. Udenfried, A specific method for the analysis of hydroxyproline in tissues and urine, Anal. Biochem. 1, 228-239 (1960)] in modified form was used: liver samples with a wet weight of 60-90 mg were dried and then hydrolyzed in 6 N hydrochloric acid at 100° C. for 17 hours. The hydrolyzate was dried by evaporation and reconstituted in 5 ml of deionized water. […] After incubation at 35° C. for 3 hours, the absorption was measured at 573 nm. […]

[3] = tested on: hepatic fibrosis resulting from chronic administration of carbon tetrachloride in rats; assay: Model of chronic carbon tetrachloride intoxication, liver collagen content (4-hydroxyproline); format: in vivo, rat; conditions: CCl4-treated female Sprague-Dawley rats, 30 mg/kg p.o. o.d., 6 weeks; vehicle 1.921, intact 0.504; P =0.059 vs. vehicle
Text: a) Model of Chronic Carbon Tetrachloride Intoxication:
Chronic carbon tetrachloride (CCl4) treatment is a standard method for generating hepatic fibrosis of nonviral origin and subsequent cirrhosis. It is generally accepted as a model of hepatic fibrosis and cirrhosis in humans [E. McLean, A. McLean, P. Sutton, Instant Fibrosis: An improved method for producing cirrhosis of the liver in rats by simultaneous administration of carbon tetrachloride and phenobarbitone, Br. J. Exp. Pathol. 50, 502-506 (1969)].
Female Sprague-Dawley rats (200-220 g) were employed. In order to achieve maximum microsomal metabolization of the CCl4, the animals received isoniazid in the drinking water (1 g/l) for one week before starting the administration of carbon tetrachloride. CCl4 was administered orally each fifth day in a dose of 0.2 ml/100 g of bodyweight in a 1:1 mixture with mineral oil. […] Necropsy was performed 6 weeks after starting the treatment.
The total collagen content was estimated by means of the tissue 4-hydroxyproline concentration. […] After incubation at 35° C. for 3 hours, the absorption was measured at 573 nm. […]

[4] = tested on: hepatic fibrosis following bile duct ligature in rats; assay: Model of bile duct ligature, histological morphometry (picrosirius red); format: in vivo, rat; conditions: 15 mg/kg p.o. b.i.d.
Protocol: b) Model of Bile Duct Ligature:
The experiments were carried out with female Sprague-Dawley rats (200-220 g). In order to generate chronic fibrosis, the bile duct (common hepatic duct) was doubly ligated in a surgical procedure. Ethibloc® occlusion emulsion (Ethicon, Norderstedt, Germany), a mixture of prolamine and ethanol, was instilled retrogradely into the biliary system [J. Kountouras, B. Billing, P. Scheuer, Prolonged bile obstruction: A new experimental model for cirrhosis in the rat, Br. J. Exp. Pathol. 65, 305-311 (1984); G. Boigk, L. Stroedter, H. Herbst, J. Waldschmidt, E. O. Riecken, D. Schuppan, Silymarin retards collagen accumulation in early and advanced biliary fibrosis secondary to complete bile duct obliteration in rats, Hepatology 26, 643-649 (1997)]. […] The animals were sacrificed and investigated three weeks after the surgical procedure.
a) Histological Assessments/Morphometry:
Standardized transverse cylinders of liver tissue (approx. 10×2 mm) were cut out of the right anterior lobe of each rat liver. Frozen sections were stained with 0.1% picrosirius red solution to detect scar collagen associated with hepatic fibrosis. The contrast was increased by counterstaining with fast green. The extent of hepatic fibrosis was found as a percentage of the part stainable with picrosirius red in each section. […]

Compound | IC50 [1] | melting point | also measured
N#CCCN [β-Aminopropionitrile (BAPN), reference compound] | 10000 nM | – | –
O=c1c(Oc2ccc(-c3ccccc3)cc2)c(N2CCNCC2)cnn1-c1ccc(Cl)cc1 [Ex. 12, 4-(1,1′-Biphenyl-4-yloxy)-2-(4-chlorophenyl)-5-(1-piperazinyl)-3(2H)-pyridazinone] | 3 nM | – | –
O=c1c(Oc2ccc(-c3ccccc3)cc2)c(-n2ccnc2)cnn1-c1ccc(F)cc1 [compound 74] | – | 119 °C | –
O=c1c(Oc2ccc(-n3cccc3)cc2)c(-n2ccnc2)cnn1-c1ccc(Cl)cc1 [compound 78] | – | 188 °C | –
CN1CCN(c2cnn(-c3ccc(Cl)cc3)c(=O)c2Oc2ccc(-c3ccccc3)cc2)CC1.Cl [Ex. 34] | 9 nM | 162 °C | 4-Hydroxyproline content: average in mg/g dry weight [2]: 1.293 mg/g dry weight
CS(=O)(=O)N1CCN(c2cnn(-c3ccc(Cl)cc3)c(=O)c2Oc2ccc(-c3ccc(F)c(CN)c3)cc2)CC1 [Ex. 8, 4-{[3′-(Aminomethyl)-4′-fluoro-1,1′-biphenyl-4-yl]oxy}-2-(4-chlorophenyl)-5-[4-(methylsulfonyl)-1-piperazinyl]-3(2H)-pyridazinone] | 7 nM | – | –
O=c1c(Oc2ccc(-c3ccc(F)cc3)cc2)c(N2CCC(CO)CC2)cnn1-c1ccc(Cl)cc1 [Ex. 25, 2-(4-Chlorophenyl)-4-[(4′-fluoro-1,1′-biphenyl-4-yl)oxy]-5-[4-(hydroxymethyl)-1-piperidinyl]-3(2H)-pyridazinone] | 5 nM | – | –
CCN1CCN(c2cnn(-c3ccc(C)cc3)c(=O)c2Oc2ccc(-c3ccc(O)cc3)cc2)CC1 [Ex. 5, 5-(4-Ethyl-1-piperazinyl)-4-[(4′-hydroxy-1,1′-biphenyl-4-yl)oxy]-2-(4-methylphenyl)-3(2H)-pyridazinone] | 17 nM | – | –
O=c1c(Oc2ccc(-c3ccccc3)cc2)c(-n2ccnc2)cnn1-c1ccc(Cl)cc1 [Ex. 82] | 11 nM | – | 4-Hydroxyproline content: average in mg/g dry weight [3]: 1.260 mg/g dry weight; Proportionate area stainable with picrosirius red: average in % ([4]; bile duct ligated female Sprague-Dawley rats, three weeks, vehicle 7.4, sham 0.21, P <0.05 vs. vehicle): 4.98%; inhibition in fibrosis ([4]; bile duct ligated rats, worked out from Table 2): approx. 34%
CS(=O)(=O)Nc1ccc(-c2ccc(Oc3c(-n4ccnc4)cnn(-c4ccc(Cl)cc4)c3=O)cc2)cc1 [compound 83] | – | 180 °C | –
O=c1c(Oc2ccc(-c3ccccc3)cc2)c(-n2ccnc2)cnn1-c1cccc(F)c1 [compound 73] | – | 148 °C | –
N#Cc1ccc(-c2ccc(Oc3c(-n4ccnc4)cnn(-c4ccc(Cl)cc4)c3=O)cc2)cc1 [compound 80] | – | 276 °C | –
CC(=O)NCc1cc(-c2ccc(Oc3c(N4CCNCC4)cnn(-c4ccc(Cl)cc4)c3=O)cc2)ccc1F [Ex. 176] | 10 nM | – | –
Cc1ccc(-n2ncc(-n3ccnc3)c(Oc3ccc(-c4ccccc4)cc3)c2=O)cc1 [compound 77] | – | 177 °C | –
O=c1c(Oc2ccc(-c3ccc(F)cc3)cc2)c(-n2ccnc2)cnn1-c1ccc([N+](=O)[O-])cn1 [compound 71] | – | 186 °C | –
O=c1c(Oc2ccc(-c3ccc(O)cc3)cc2)c(-n2ccnc2)cnn1-c1ccc(Cl)cc1 [Ex. 81] | 7 nM | – | –
CCOc1c(N2CCOCC2)cnn(C)c1=O [4-ethoxy-2-methyl-5-morpholino-3(2H)-pyridazinone, reference compound] | > 4000 nM | – | –
Cc1ccc(-n2ncc(-n3ccnc3)c(Oc3ccc(-c4ccc(C#N)cc4)cc3)c2=O)cc1 [compound 76] | – | 220 °C | –
CCOC(=O)c1ccc(-n2ncc(-n3ccnc3)c(Oc3ccc(-c4ccccc4)cc3)c2=O)cc1 [compound 72] | – | 151 °C | –
